Reference: ChEMBL document CHEMBL1125022, “Chiral modifications of dolastatin 10: the potent cytostatic peptide (19aR)-isodolastatin 10” (1990)
≈ marks a conversion by molar mass, not a printed value.

Test system: P388
Test: Effect against cell growth of the P388 lymphocytic leukemia (PS system)
Type: functional
Conditions: Mus musculus, read-out: ED50 (the source's name)

| SMILES | EC50 |
| --- | --- |
| CC[C@@H](C)[C@@H]([C@@H](CC(=O)N1CCC[C@H]1[C@@H](OC)[C@H](C)C(=O)N[C@@H](Cc1ccccc1)c1nccs1)OC)N(C)C(=O)[C@@H](NC(=O)[C@H](C(C)C)N(C)C)C(C)C | 39 ng/mL (≈ 49.7 nM) |
| CC[C@@H](C)[C@H]([C@H](CC(=O)N1CCC[C@H]1[C@@H](OC)[C@@H](C)C(=O)N[C@@H](Cc1ccccc1)c1nccs1)OC)N(C)C(=O)[C@@H](NC(=O)[C@H](C(C)C)N(C)C)C(C)C | 200 ng/mL (≈ 255 nM) |
| CCC(C)[C@@H]([C@@H](CC(=O)N1CCC[C@H]1[C@H](OC)[C@H](C)C(=O)N[C@@H](Cc1ccccc1)c1nccs1)OC)N(C)C(=O)[C@@H](NC(=O)[C@H](C(C)C)N(C)C)C(C)C (some centres undefined) | 1.6 ng/mL (≈ 2.04 nM) |
| CC[C@@H](C)[C@@H]([C@@H](CC(=O)N1CCC[C@H]1[C@@H](OC)[C@@H](C)C(=O)N[C@@H](Cc1ccccc1)c1nccs1)OC)N(C)C(=O)[C@@H](NC(=O)[C@H](C(C)C)N(C)C)C(C)C | 3.9 ng/mL (≈ 4.97 nM) |
| CC[C@@H](C)[C@H]([C@H](CC(=O)N1CCC[C@H]1[C@H](OC)[C@H](C)C(=O)N[C@@H](Cc1ccccc1)c1nccs1)OC)N(C)C(=O)[C@@H](NC(=O)[C@H](C(C)C)N(C)C)C(C)C | 150 ng/mL (≈ 191 nM) |
| CC[C@@H](C)[C@@H]([C@H](CC(=O)N1CCC[C@H]1[C@@H](OC)[C@H](C)C(=O)N[C@@H](Cc1ccccc1)c1nccs1)OC)N(C)C(=O)[C@@H](NC(=O)[C@H](C(C)C)N(C)C)C(C)C | > 1000 ng/mL |
| CC[C@@H](C)[C@H]([C@@H](CC(=O)N1CCC[C@H]1[C@H](OC)[C@H](C)C(=O)N[C@@H](Cc1ccccc1)c1nccs1)OC)N(C)C(=O)[C@@H](NC(=O)[C@H](C(C)C)N(C)C)C(C)C | > 1000 ng/mL |
| CC[C@@H](C)[C@H]([C@H](CC(=O)N1CCC[C@H]1[C@@H](OC)[C@H](C)C(=O)N[C@@H](Cc1ccccc1)c1nccs1)OC)N(C)C(=O)[C@@H](NC(=O)[C@H](C(C)C)N(C)C)C(C)C | 630 ng/mL (≈ 802 nM) |
| CCC(C)[C@H]([C@@H](CC(=O)N1CCC[C@H]1[C@H](OC)[C@H](C)C(=O)N[C@@H](Cc1ccccc1)c1nccs1)OC)N(C)C(=O)[C@@H](NC(=O)[C@H](C(C)C)N(C)C)C(C)C (some centres undefined) | > 1000 ng/mL |
| CC[C@@H](C)[C@H]([C@@H](CC(=O)N1CCC[C@H]1[C@@H](OC)[C@H](C)C(=O)N[C@@H](Cc1ccccc1)c1nccs1)OC)N(C)C(=O)[C@@H](NC(=O)[C@H](C(C)C)N(C)C)C(C)C | > 1000 ng/mL |
| CCC(C)[C@H]([C@H](CC(=O)N1CCC[C@H]1[C@H](OC)[C@@H](C)C(=O)N[C@@H](Cc1ccccc1)c1nccs1)OC)N(C)C(=O)[C@@H](NC(=O)[C@H](C(C)C)N(C)C)C(C)C (some centres undefined) | 3.2 ng/mL (≈ 4.08 nM) |
| CCC(C)[C@@H]([C@H](CC(=O)N1CCC[C@H]1[C@H](OC)[C@H](C)C(=O)N[C@@H](Cc1ccccc1)c1nccs1)OC)N(C)C(=O)[C@@H](NC(=O)[C@H](C(C)C)N(C)C)C(C)C (some centres undefined) | 620 ng/mL (≈ 790 nM) |
| CC[C@@H](C)[C@@H]([C@H](CC(=O)N1CCC[C@H]1[C@H](OC)[C@H](C)C(=O)N[C@@H](Cc1ccccc1)c1nccs1)OC)N(C)C(=O)[C@@H](NC(=O)[C@H](C(C)C)N(C)C)C(C)C | 410 ng/mL (≈ 522 nM) |
| CC[C@@H](C)[C@@H]([C@H](CC(=O)N1CCC[C@H]1[C@H](OC)[C@@H](C)C(=O)N[C@@H](Cc1ccccc1)c1nccs1)OC)N(C)C(=O)[C@@H](NC(=O)[C@H](C(C)C)N(C)C)C(C)C | 600 ng/mL (≈ 764 nM) |
| CC[C@@H](C)[C@@H]([C@@H](CC(=O)N1CCC[C@H]1[C@H](OC)[C@@H](C)C(=O)N[C@@H](Cc1ccccc1)c1nccs1)OC)N(C)C(=O)[C@@H](NC(=O)[C@H](C(C)C)N(C)C)C(C)C | 0.049 ng/mL (≈ 0.0624 nM) |
| CC[C@H](C)[C@@H]([C@@H](CC(=O)N1CCC[C@H]1[C@H](OC)[C@@H](C)C(=O)N[C@@H](Cc1ccccc1)c1nccs1)OC)N(C)C(=O)[C@@H](NC(=O)[C@H](C(C)C)N(C)C)C(C)C [DOLASTATIN-10] | 1 ng/mL (≈ 1.27 nM) |
| CC[C@@H](C)[C@H]([C@H](CC(=O)N1CCC[C@H]1[C@H](OC)[C@@H](C)C(=O)N[C@@H](Cc1ccccc1)c1nccs1)OC)N(C)C(=O)[C@@H](NC(=O)[C@H](C(C)C)N(C)C)C(C)C | 3.2 ng/mL (≈ 4.08 nM) |
| CCC(C)[C@H]([C@H](CC(=O)N1CCC[C@H]1[C@H](OC)[C@H](C)C(=O)N[C@@H](Cc1ccccc1)c1nccs1)OC)N(C)C(=O)[C@@H](NC(=O)[C@H](C(C)C)N(C)C)C(C)C (some centres undefined) | 270 ng/mL (≈ 344 nM) |
| CC[C@@H](C)[C@@H]([C@@H](CC(=O)N1CCC[C@H]1[C@H](OC)[C@H](C)C(=O)N[C@@H](Cc1ccccc1)c1nccs1)OC)N(C)C(=O)[C@@H](NC(=O)[C@H](C(C)C)N(C)C)C(C)C | 5.6 ng/mL (≈ 7.13 nM) |
